Assay results taken from patent US4415730A, “19-Deformyl-deoxy-desmycosin” (priority 1981, dated 1983).
Converted amounts (≈) assume the structure as drawn. Where two headings read alike, the source gives them in different places.

Assays:
Assay type in all cases: cell-based
[1] = tested on: Streptococcus pyogenes N.Y.5; assay: MIC, Streptococcus pyogenes N.Y.5
[2] = tested on: Streptococcus pyogenes 1022; assay: MIC, Streptococcus pyogenes 1022
[3] = tested on: Staphylococcus aureus 0119; assay: MIC, Staphylococcus aureus 0119
Text: (§1) *Macrolide antibioticsresistant A group strain (clinical isolates of
(§2) erythromycin, oleandomycin and 16member-ring-macrolide-resistant strain)

[4] = tested on: Staphylococcus aureus 0127; assay: MIC, Staphylococcus aureus 0127
Text: as §1, §2

[5] = tested on: Staphylococcus aureus 0116; assay: MIC, Staphylococcus aureus 0116
Text: as §1, §2

[6] = tested on: Staphylococcus aureus ATCC 6538P; assay: MIC, Staphylococcus aureus ATCC 6538P; conditions: ATCC6538P
[7] = tested on: Staphylococcus aureus MS353AO; assay: MIC, Staphylococcus aureus MS353AO
Text: as §1, §2

[8] = tested on: Staphylococcus aureus MS353; assay: MIC, Staphylococcus aureus MS353
[9] = Staphylococcus aureus 0119, macrolide-resistant A group strain, clinical isolate, read-out: MIC
[10] = Staphylococcus aureus 0127, macrolide-resistant A group strain, clinical isolate, read-out: MIC
[11] = Staphylococcus aureus 0116, macrolide-resistant A group strain, clinical isolate, read-out: MIC

CCC1OC(=O)CC(O)C(C)C(OC2OC(C)CC(N(C)C)C2O)C(C)CC(C)C(=O)C=CC(C)=CC1COC1OC(C)C(O)C(OC)C1OC (stereo not shown) [Compound [1] R1 = H, 19-deformyl-4'-deoxy-desmycosin]
MIC [1]: ≤ 0.05 µg/mL | MIC [2]: > 100 µg/mL | MIC [3, 9]: > 100 µg/mL | MIC [4, 10]: > 100 µg/mL | MIC [5, 11]: 0.8 µg/mL (≈ 1.1 µM) | MIC [6]: ≤ 0.05 µg/mL | MIC ([7]; Staphylococcus aureus, MS353AO): 0.8 µg/mL (≈ 1.1 µM) | MIC [8]: ≤ 0.05 µg/mL

CCC1OC(=O)CC(O)C(C)C(OC2OC(C)C(O)C(N(C)C)C2O)C(C)CC(C)C(=O)C=CC(C)=CC1COC1OC(C)CC(OC)C1OC (stereo not shown) [Compound [1] R1 = OH, 19-deformyl-4"-deoxy-desmycosin]
MIC [1]: ≤ 0.05 µg/mL | MIC ([2]; read-out: MIC): 25 µg/mL (≈ 34.3 µM) | MIC [3, 9]: 12.5 µg/mL (≈ 17.2 µM) | MIC ([4]; Staphylococcus aureus, 0127): 6.3 µg/mL (≈ 8.65 µM) | MIC [5, 11]: 3.1 µg/mL (≈ 4.26 µM) | MIC [6]: 0.1 µg/mL (≈ 0.137 µM) | MIC ([7]; Staphylococcus aureus, MS353AO): 25 µg/mL (≈ 34.3 µM) | MIC [8]: ≤ 0.05 µg/mL

CCC1OC(=O)CC(O)C(C)C(OC2OC(C)C(O)C(N(C)C)C2O)C(CC=O)CC(C)C(=O)/C=C/C(C)=C/C1COC1OC(C)C(O)C(OC)C1OC (stereo not shown) [descomycin, 4'-demycarosyl tylosin]
MIC [1]: ≤ 0.05 µg/mL | MIC ([2]; read-out: MIC): > 100 µg/mL | MIC [3, 9]: > 100 µg/mL | MIC [4, 10]: > 100 µg/mL | MIC [5, 11]: 3.1 µg/mL (≈ 4.02 µM) | MIC [6]: 0.8 µg/mL (≈ 1.04 µM) | MIC ([7]; Staphylococcus aureus, MS353AO): > 100 µg/mL | MIC [8]: 0.8 µg/mL (≈ 1.04 µM)

CC[C@H]1OC(=O)[C@H](C)[C@@H](O[C@H]2C[C@@](C)(OC)[C@@H](O)[C@H](C)O2)[C@H](C)[C@@H](O[C@@H]2O[C@H](C)C[C@H](N(C)C)[C@H]2O)[C@](C)(O)C[C@@H](C)C(=O)[C@H](C)[C@@H](O)[C@]1(C)O [erythromycin]
MIC [1]: ≤ 0.05 µg/mL | MIC [2]: > 100 µg/mL | MIC ([3]; Staphylococcus aureus, 0119): > 100 µg/mL | MIC ([4]; Staphylococcus aureus, 0127): > 100 µg/mL | MIC ([5]; Staphylococcus aureus, 0116): > 100 µg/mL | MIC [6]: ≤ 0.05 µg/mL | MIC ([7]; Staphylococcus aureus MS353AO, macrolide-resistant A group strain, clinical isolate, read-out: MIC): > 100 µg/mL | MIC [8]: 0.1 µg/mL (≈ 0.136 µM)

CO[C@@H]1[C@@H](O[C@@H]2O[C@H](C)[C@@H](O[C@H]3C[C@@](C)(O)[C@@H](OC(=O)CC(C)C)[C@H](C)O3)[C@H](N(C)C)[C@H]2O)[C@@H](CC=O)C[C@@H](C)[C@@H](O)/C=C/C=C/C[C@@H](C)OC(=O)C[C@H]1OC(C)=O [josamycin]
MIC [1]: ≤ 0.05 µg/mL | MIC ([2]; read-out: MIC): > 100 µg/mL | MIC [3, 9]: > 100 µg/mL | MIC [4, 10]: > 100 µg/mL | MIC [5, 11]: > 100 µg/mL | MIC [6]: 0.4 µg/mL (≈ 0.483 µM) | MIC ([7]; Staphylococcus aureus, MS353AO): > 100 µg/mL | MIC [8]: 0.8 µg/mL (≈ 0.966 µM)
